According to the supplement of paper PMC4858399:

Columns and labels:
Settings in all cases: exposure time 48 h
[1] = tested on: Caenorhabditis elegans N2; assay: lowest effective concentration for larval growth inhibition (size below effect threshold); higher = less potent
Method in brief: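 In 96-well plates, 50 C. elegans N2 L1 larvae per well were cultured at 20°C for 48 h in K-medium with killed bacteria and 1% DMSO, plus the chemical at 0.5, 1, 5, 10, 50, 100 or 200 µM. Size was measured as per-worm extinction on a Biosort and log-transformed into well means. Taking the first dose where the plate-adjusted mean size sits under 5.665 and stays there at higher doses gives the lowest effective concentration.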

[2] = tested on: Caenorhabditis elegans N2; assay: mean nematode size ln(EXT) after 48 h, plate-adjusted (DMSO control set to 6) (ln(EXT), control-adjusted); higher = larger nematodes / less growth inhibition
Method in brief: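 Worms were measured individually for extinction on the Biosort after 48 h at 20°C. They began as synchronised C. elegans N2 L1 larvae in K-medium with killed OP50, 1% DMSO and 0.5–200 µM chemical. Once debris had been removed by a growth model, values were natural-logged and averaged per well to give mean size. The plate adjustment subtracted the vehicle control mean and added 6.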

[3] = tested on: Caenorhabditis elegans N2; assay: AC50 for larval growth inhibition (Hill fit); higher = less potent
Method in brief: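 Synchronised C. elegans N2 L1 larvae (50 per well, 96-well plates) were grown for 48 h at 20°C in K-medium with killed OP50, 1% DMSO and 0.5–200 µM chemical. The COPAS Biosort measured each worm's size as extinction, which was log-transformed and averaged per well. AC50 came from a constrained Hill fit by weighted genetic-algorithm regression on wells with at least 10 worms. Out-of-range values are censored.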

Structure (SMILES) | lowest effective concentration [1] [µM] | mean nematode size ln(EXT) (ln) ([2]; 0.5 µM) | mean nematode size ln(EXT) (ln) ([2]; 1 µM) | mean nematode size ln(EXT) (ln) ([2]; 5 µM) | mean nematode size ln(EXT) (ln) ([2]; 10 µM) | mean nematode size ln(EXT) (ln) ([2]; 50 µM) | mean nematode size ln(EXT) (ln) ([2]; 100 µM) | mean nematode size ln(EXT) (ln) ([2]; 200 µM) | AC50 for larval growth inhibition [3] [µM]
C=C(C)CN(CC)c1c([N+](=O)[O-])cc(C(F)(F)F)cc1[N+](=O)[O-] [Ethalfluralin] | 200 | 5.89 | 6.05 | 5.94 | 5.8 | 6.1 | 5.98 | 4.85 | 141
CCOP(=S)(OCC)SCSP(=S)(OCC)OCC [Ethion] | 1 | 5.78 | 5.62 | 5.28 | 5.04 | 4.93 | 4.85 | 4.06 | 99.2
CCOC1Oc2ccc(OS(C)(=O)=O)cc2C1(C)C (centres undefined) [Ethofumesate] | 200 | 6.01 | 6.03 | 6.14 | 6.03 | 6.14 | 6.11 | 5.44 | 198
CCCSP(=O)(OCC)SCCC [Ethoprop] | 10 | 5.83 | 5.78 | 5.68 | 5.55 | 4.81 | 4.35 | 4.19 | 76.3
CCOc1ccc2c(c1)C(C)=CC(C)(C)N2 [Ethoxyquin] | 100 | 5.78 | 5.74 | 5.77 | 5.78 | 5.71 | 5.61 | 5.17 | > 200
OCCO [Ethylene glycol] | 100 | 5.79 | 5.77 | 5.77 | 5.78 | 5.72 | 5.63 | 5.65 | > 200
CCOc1ccc(C(C)(C)COCc2cccc(Oc3ccccc3)c2)cc1 [Etofenprox] | 100 | 5.87 | 5.88 | 5.91 | 5.71 | 5.81 | 5.39 | 5.47 | 52.2
CCOc1cc(C(C)(C)C)ccc1C1COC(c2c(F)cccc2F)=N1 (centres undefined) [Etoxazole] | 1 | 5.74 | 5.16 | 4.48 | 4.32 | 4.37 | 3.91 | 3.44 | 2.3
Cc1oc(-c2ccccc2)nc1CCOc1ccc(C[C@H](Nc2ccccc2C(=O)c2ccccc2)C(=O)O)cc1 [Farglitazar] | 50 | 5.87 | 5.89 | 5.92 | 6.19 | 4.95 | 4.73 | 4.48 | 39
Cc1cc(N=Nc2ccccc2C)ccc1N [Fast Garnet GBC base] | 5 | 5.83 | 5.71 | 5.55 | 5.5 | 3.45 | 3.57 | 3.77 | 14.9
CSC1=N[C@@](C)(c2ccccc2)C(=O)N1Nc1ccccc1 [Fenamidone] | 200 | 5.9 | 5.9 | 5.86 | 5.96 | 6.02 | 5.83 | 5.41 | 105
CN(C)c1ccc(N=NS(=O)(=O)O)cc1 [Fenaminosulf] | 50 | 5.95 | 5.88 | 5.79 | 5.86 | 4.72 | 3.9 | 3.5 | 54.8
CCOP(=O)(NC(C)C)Oc1ccc(SC)c(C)c1 (centres undefined) [Fenamiphos] | ≤ 0.5 | 5.54 | 5.56 | 5.32 | 5.31 | 4.93 | 4.49 | 4.15 | 90.9
OC(c1ccc(Cl)cc1)(c1cncnc1)c1ccccc1Cl (centres undefined) [Fenarimol] | 50 | 6.14 | 6.17 | 6.07 | 5.92 | 5.21 | 3.58 | 3.32 | 59.8
N#CC(CCc1ccc(Cl)cc1)(Cn1cncn1)c1ccccc1 (centres undefined) [Fenbuconazole] | 10 | 6.18 | 6.1 | 6.07 | 5.65 | 5.13 | 5.27 | 4.39 | 177
CC1(C(=O)Nc2ccc(O)c(Cl)c2Cl)CCCCC1 [Fenhexamid] | 200 | 5.86 | 5.87 | 5.88 | 5.96 | 6 | 5.86 | 4.71 | 112
COP(=S)(OC)Oc1ccc([N+](=O)[O-])c(C)c1 [Fenitrothion] | 5 | 5.97 | 5.72 | 5.6 | 5.46 | 4.49 | 3.96 | 4.09 | 37
CC(C)OC(=O)C(C)(C)Oc1ccc(C(=O)c2ccc(Cl)cc2)cc1 [Fenofibrate] | 10 | 5.83 | 5.81 | 5.75 | 5.61 | 5.19 | 4.62 | 4.22 | 121
CCOC(=O)C(C)Oc1ccc(Oc2nc3ccc(Cl)cc3o2)cc1 (centres undefined) [Fenoxaprop-ethyl] | 100 | 5.83 | 6.04 | 6 | 5.97 | 5.68 | 5.4 | 5.18 | 76.3
CCOC(=O)NCCOc1ccc(Oc2ccccc2)cc1 [Fenoxycarb] | 10 | 5.96 | 5.87 | 5.9 | 5.59 | 4.47 | 4.1 | 3.72 | 37.2
CC1(C)C(C(=O)OC(C#N)c2cccc(Oc3ccccc3)c2)C1(C)C (centres undefined) [Fenpropathrin] | 50 | 5.91 | 5.81 | 5.77 | 5.93 | 5.22 | 5.22 | 4.68 | > 200
